# Reference: patent publication US20030224942A1, “Alkylamino-1,3,5-triazines, processes for their preparation and their use as herbicides and plant growth regulators” (priority 2001, published 2003)
# Tests used:
# [1] = system: Cyperus spp., Echinochloa spp., Digitaria spp., Sagitaria spp. and Scirpus spp.; test: Action on harmful plants in rice (paddy rice conditions, visual scoring); type: in vivo, typical rice weeds (gramineous and broad-leaved); conditions: applied into the dammed water, visual scoring about three weeks after application
# Method in brief: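 Rice and typical gramineous and broad-leaved rice weeds grown in closed pots in greenhouse under paddy conditions (2-3 cm water) to three-leaf stage (Echinochloa crus-galli 1.5-leaf), then treated with compounds. Plants kept under optimum greenhouse conditions throughout; effect scored visually.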
# [2] = system: Chenopodium spp., Papaver spp., Polygonum spp., Veronica spp. or Viola spp.; test: Post-emergence effect on weeds (greenhouse pot test, visual scoring); type: in vivo, monocotyledonous and dicotyledonous weeds; conditions: treated at three-leaf stage; visual scoring after about 3 to 4 weeks; application rate of 0.5 kg and less of active substance per hectare
SMILES,herbicidal activity against harmful plants which are typical for rice crops [1],herbicidal activity post-emergence against harmful plants [2]
CC(C)(F)c1nc(N)nc(NC(c2ccc(C(F)=C(F)F)cc2)C2CC2)n1 (stereo not drawn) [Product P19.1568],very good herbicidal activity,very good herbicidal activity
CC#Cc1cccc(CNc2nc(N)nc(C(C)C)n2)c1 [Product P11.1582],very good herbicidal activity,very good herbicidal activity
CC(O)C#Cc1ccc(C(C)Nc2nc(N)nc(C(C)(C)F)n2)cc1 (stereo not drawn) [Product P17.1601],very good herbicidal activity,very good herbicidal activity
C#Cc1c(C)cc(C(C)Nc2nc(N)nc(CC)n2)cc1C (stereo not drawn) [Product P7.348],very good herbicidal activity,very good herbicidal activity
CC#Cc1cc(C(Nc2nc(N)nc(C(C)C)n2)C2CC2)ccc1F (stereo not drawn) [Product P14.384],very good herbicidal activity,very good herbicidal activity
CC(F)C#Cc1ccc(C(C)Nc2nc(N)nc(C(C)F)n2)cc1 (stereo not drawn) [Product P22.1598],very good herbicidal activity,very good herbicidal activity
C#Cc1c(F)cc(CNc2nc(N)nc(C(C)F)n2)cc1F (stereo not drawn) [Product P21.352],very good herbicidal activity,very good herbicidal activity
CC#Cc1c(F)cc(CNc2nc(N)nc(C(F)CC)n2)cc1F (stereo not drawn) [Product P26.428],very good herbicidal activity,very good herbicidal activity
C#Cc1ccc(C(Nc2nc(N)nc(CC)n2)C2CC2)cc1 (stereo not drawn) [Product P9.1580],very good herbicidal activity,very good herbicidal activity
Cc1nc(N)nc(NC(c2ccc(F)c(C(F)=C(F)F)c2)C2CC2)n1 (stereo not drawn) [Product P4.5],very good herbicidal activity,very good herbicidal activity
CC(F)c1nc(N)nc(NC(C)c2cccc(C(F)=C(F)F)c2)n1 (stereo not drawn) [Product P22.1567],very good herbicidal activity,very good herbicidal activity
C#Cc1c(F)cc(C(Nc2nc(N)nc(CC)n2)C2CC2)cc1F (stereo not drawn) [Product P9.352],very good herbicidal activity,very good herbicidal activity
C#Cc1ccc(C(Nc2nc(N)nc(C(C)F)n2)C2CC2)cc1 (stereo not drawn) [Product P24.1580],very good herbicidal activity,very good herbicidal activity
CC(C)c1nc(N)nc(NC(c2cccc(C(F)=C(F)F)c2)C2CC2)n1 (stereo not drawn) [Product P14.1567],very good herbicidal activity,very good herbicidal activity
CC(F)c1nc(N)nc(NCc2ccc(C(F)=C(F)F)cc2)n1 (stereo not drawn) [Product P21.1568],very good herbicidal activity,very good herbicidal activity
C#Cc1c(F)cc(C(C)Nc2nc(C)nc(N)n2)cc1F (stereo not drawn) [Product P2.352],very good herbicidal activity,very good herbicidal activity
CC(C)(F)c1nc(N)nc(NCc2ccc(C(F)=C(F)F)cc2)n1 [Product P16.1568],very good herbicidal activity,very good herbicidal activity
CC(C)(F)c1nc(N)nc(NC(c2cccc(C(F)=C(F)F)c2)C2CC2)n1 (stereo not drawn) [Product P19.1567],very good herbicidal activity,very good herbicidal activity
CC#Cc1c(F)cc(C(Nc2nc(N)nc(C(C)C)n2)C2CC2)cc1F (stereo not drawn) [Product P14.428],very good herbicidal activity,very good herbicidal activity
CCc1nc(N)nc(NCc2cc(F)c(C3CC3)c(F)c2)n1 [Product P6.960],very good herbicidal activity,very good herbicidal activity
C#Cc1cc(C#C)cc(C(C)Nc2nc(N)nc(C(C)(C)F)n2)c1 (stereo not drawn) [Product P17.369],very good herbicidal activity,very good herbicidal activity

SMILES,herbicidal activity against harmful plants which are typical for rice crops [1],herbicidal activity post-emergence against harmful plants [2]
CCCCC#Cc1ccc(C(C)Nc2nc(N)nc(C(C)F)n2)cc1 (stereo not drawn) [Product P22.1595],very good herbicidal activity,very good herbicidal activity
CC#Cc1cc(CNc2nc(C)nc(N)n2)ccc1F [Product P1.384],very good herbicidal activity,very good herbicidal activity
C#Cc1ccc(C(Nc2nc(C)nc(N)n2)C2CC2)cc1 (stereo not drawn) [Product P4.1580],very good herbicidal activity,very good herbicidal activity
CC#Cc1cc(CNc2nc(N)nc(CC)n2)ccc1F [Product P6.384],very good herbicidal activity,very good herbicidal activity
C#Cc1cc(C(C)Nc2nc(N)nc(C(F)CC)n2)ccc1F (stereo not drawn) [Product P27.309],very good herbicidal activity,very good herbicidal activity
C#Cc1cccc(C(Nc2nc(N)nc(C(C)(C)F)n2)C2CC2)c1 (stereo not drawn) [Product P19.1579],very good herbicidal activity,very good herbicidal activity
CC(F)c1nc(N)nc(NCc2cccc(C(F)=C(F)F)c2)n1 (stereo not drawn) [Product P21.1567],very good herbicidal activity,very good herbicidal activity
CC#Cc1cccc(C(C)Nc2nc(N)nc(C(C)F)n2)c1 (stereo not drawn) [Product P22.1582],very good herbicidal activity,very good herbicidal activity
CCC(F)c1nc(N)nc(NC(C)c2ccc(C3CC3)cc2)n1 (stereo not drawn) [Product P27.1604],very good herbicidal activity,very good herbicidal activity
C#Cc1ccc(C(C)Nc2nc(N)nc(C(C)C)n2)cc1F (stereo not drawn) [Product P12.1620],very good herbicidal activity,very good herbicidal activity
CCc1nc(N)nc(NCc2cccc(C3CC3)c2)n1 [Product P6.1603],very good herbicidal activity,very good herbicidal activity
C#Cc1ccc(C(C)Nc2nc(N)nc(C(F)CC)n2)cc1C (stereo not drawn) [Product P27.335],very good herbicidal activity,very good herbicidal activity
C#Cc1cccc(C(Nc2nc(C)nc(N)n2)C2CC2)c1 (stereo not drawn) [Product P4.1579],very good herbicidal activity,very good herbicidal activity
C#Cc1cc(C(Nc2nc(N)nc(C(C)C)n2)C2CC2)ccc1F (stereo not drawn) [Product P14.309],very good herbicidal activity,very good herbicidal activity
C#Cc1c(F)cc(CNc2nc(N)nc(CC)n2)cc1F [Product P6.352],very good herbicidal activity,very good herbicidal activity
C#Cc1cc(CNc2nc(C)nc(N)n2)ccc1F [Product P1.309],very good herbicidal activity,very good herbicidal activity
CC(F)c1nc(N)nc(NC(c2ccc(C3CC3)cc2)C2CC2)n1 (stereo not drawn) [Product P24.1604],very good herbicidal activity,very good herbicidal activity
C#Cc1cc(C(Nc2nc(N)nc(C(F)CC)n2)C2CC2)ccc1F (stereo not drawn) [Product P29.309],very good herbicidal activity,very good herbicidal activity
CCCCC#Cc1c(C)cc(C(C)Nc2nc(N)nc(C(C)(C)F)n2)cc1C (stereo not drawn) [Product P17.728],very good herbicidal activity,very good herbicidal activity
C#Cc1cc(CNc2nc(N)nc(C(C)F)n2)ccc1F (stereo not drawn) [Product P21.309],very good herbicidal activity,very good herbicidal activity
CC(C)c1nc(N)nc(NCc2cccc(C3CC3)c2)n1 [Product P11.1603],very good herbicidal activity,very good herbicidal activity
